Reference: patent US20060040859A1, “Peptides, DNAs, RNAs, and compounds for inhibiting or inducing adrenomedullin activity, and use of the same” (priority 2002, published 2006)
“Also recorded” adds a separate entry of the source.

Legend:
PCI-43 cells [1] = assay: Intra-tumoral injection of AM or AMA peptide, tumor size of PCI-43 xenograft (Example 2); assay type: in vivo, mouse; conditions: 50 μg in 0.1 ml saline into the tumor once a day, 7th to 16th day, observed to 21st day, SCID mice
Procedure: On the dorsal side of a CB17lcr-scid Jl mouse (CLEA JAPAN Inc.), 10^7 PCI-43 cells were subcutaneously transplanted. It was confirmed that PCI-43 cells proliferated to form a tumor, and that the tumor diameter exceeded 5 mm after 7 days. After that confirmation, 50 μg […] each of adrenomedullin and a peptide of the present invention (dissolved in 0.1 ml of physiological saline) was injected into the tumor once a day starting on the 7th day until the 16th day. A peptide consisting of SEQ ID NO: 2 was used as the peptide of the present invention (hereinafter also referred to as an “adrenomedullin antagonist (AMA)”). This peptide was purchased from Wako Pure Chemical Industries, Ltd.
The tumor diameter was megascopically measured every three days. Results are shown in FIG. 2, a graphical representation of tumor sizes when adrenomedullin, adrenomedullin antagonist, and physiological saline (V3), respectively, were administered. The horizontal axis represents the number of days after transplanting PCI-43 cells, and the vertical axis the size of the tumor in volume (mm^3). Arrows at the upper part of the graph indicate timings of administration of adrenomedullin, adrenomedullin antagonist, and physiological saline. Five CB 17lcr-scid Jl mice were used in each group.

PCI-43 cells [2] = assay: Intra-tumoral injection of AM or AMA peptide, extirpated PCI-43 tumor size and weight (Example 3); assay type: in vivo, mouse
Procedure: On the dorsal side of CB17lcr-scid Jl mice (CLEA JAPAN Inc.), 10^7 PCI-43 cells were subcutaneously transplanted. It was confirmed that PCI-43 cells proliferated to form a tumor, and that the tumor diameter exceeded 5 mm after 7 days. After that confirmation, 50 μg each […] of adrenomedullin and adrenomedullin antagonist (dissolved in 0.1 ml of physiological saline) was injected into the tumor once every three days from the 7th day, that is, on the 7th, 10th, 13th, and 16th days. Adrenomedullin and adrenomedullin antagonist used herein were the same as those used in Example 1.
Mice were sacrificed on the 21st day, and tumors were extirpated and weighed.

[3] = test system: newly generated blood vessels; assay: Anti-CD31 staining and diameters of newly generated blood vessels in tumor tissue (Example 4); assay type: in vivo, mouse; conditions: for Average ± standard deviation of blood vessel diameters: 100 newly generated blood vessels; for Number of blood vessels 2 μm to less than 8 μm / Number of blood vessels 8 μm or more / Number of blood vessels less than 2 μm: of 100 arbitrarily selected newly generated blood vessels, by diameter; for newly generated blood vessels by anti-CD31 staining: tumor tissue of Example 3 mice, FIG. 5
Procedure: The effect of a peptide of the present invention on angiogenesis was examined. Experiments were carried out with the tumor tissues of mice used in Example 3. Mouse tumor tissues were extirpated, and CD31 antigen, which is the cell surface marker specific for vascular endothelial cells, was stained with anti-CD31 antibody. Staining was performed as described below. The experiments were carried out using five mice.
Tumor tissues were frozen in liquid nitrogen to prepare frozen sections. After the frozen sections were pre-treated in albumin solution for 30 min, endogenous peroxidase activity was suppressed with hydrogen peroxide, and then, the sections were treated with anti-CD31 antibody for 1 h at room temperature. After washing, the sections were treated with a secondary antibody for 1 h, and coloured using […].
Next, 100 newly generated blood vessels of the vascular endothelial cells used in Example 4 were arbitrarily selected to measure their respective diameters. In Table 1, results of the number of the newly generated blood vessels classified by their diameters into three groups (less than 2 μm, 2 μm to less than 8 μm, and 8 μm or more) are shown together with the average of blood vessel diameters and standard deviations. In Table 1, AM stands for adrenomedullin, and AMA adrenomedullin antagonist.

[4] = test system: proliferating cell nuclear antigen (PCNA) of tumor cells; assay: Anti-PCNA staining of tumor cells (Example 5); assay type: in vivo, mouse; conditions: for cells reacting with the anti-PCNA antibody: FIG. 6; for PCNA-labelling index: tumor cells of treated mice
Description: The effect of a peptide of the present invention on cell proliferation was examined. The proliferating cell nuclear antigen (PCNA) of tumor cells from the mice used in Example 2 was stained with anti-PCNA antibody. The staining method was the same as in Example 4. Five mice were used in the experiment. The staining results for tumor cells of an adrenomedullin-administered mouse are shown on the left side in FIG. 6, while those of an adrenomedullin antagonist-administered mouse are shown on the right side.

HUVEC cells [5] = assay: MTS assay, AMA with AM on endothelial cells under hypoxic and nutrient-deprived conditions (Example 7C); assay type: cell-based; conditions: AM 10^-6 M, AMA 0 to 10^-6 M, VEGF and FGF 10 ng/ml, 48 h
Procedure: (§1) The effect of both AM and AMA together on the growth and apoptosis of endothelial cells under extreme conditions (hypoxic and nutrient-deprived) and in the presence of growth factors is examined herein. As in Example 1 above, hypoxic conditions comprised culture in 1% O2 concentration for 12 h using a hypoxic culture chamber (Wakenyaku Industry) and nutrient-deprived conditions involved addition of only 13 mg/dl glucose.
(§2) Five×10^3 cells (2×10^4 in some experiments) were plated in wells of 96-well plates. Human adrenomedullin (AM) (SEQ ID NO: 1) was added at a concentration of 10^−6 M and a human adrenomedullin antagonist peptide (AMA) (SEQ ID NO: 2) was added at indicated concentrations, ranging from 0 to 10^−6 M. VEGF and FGF were added at 10 ng/ml. The cells were incubated for 48 h and the viable cell numbers were determined by the MTS assay according to the manufacturer's instructions as described above in Example 7A.

cancer cells = assay: In vitro growth of cancer cells with AMA; assay type: cell-based
HUVEC cells [6] = assay: MTS assay, endothelial cells under hypoxic and nutrient-deprived conditions with VEGF and FGF (Example 7B); assay type: cell-based; conditions: hypoxic and glucose-deprived, AM 0 to 10^-6 M, VEGF and FGF 10 ng/ml, 48 h
Procedure: as §1, with “of” for “of both”, “AM” for “AM and AMA together”
as §2, with “1)” for “1) was added at a concentration of 10^−6 M and a human adrenomedullin antagonist peptide (AMA) (SEQ ID NO: 2)”

HUVEC cells [7] = assay: MTS assay, endothelial cell growth under normoxic, normal glucose conditions (Example 7A); assay type: cell-based; conditions: AM 0 to 10^-6 M, 48 h, normoxic and nutrient-supplied
Procedure: The effect of AM on the growth of endothelial cells under normal conditions (normoxia, normal glucose) is examined herein. As in Example I above, normoxic conditions comprised culture in 20% O2 concentration and normal glucose conditions involved addition of 100 mg/dl of glucose or higher.
Five×10^3 cells (2×10^4 in some experiments) were plated in wells of 96-well plates. Human adrenomedullin (AM) (SEQ ID NO: 1) was added at indicated concentrations, ranging from 0 to 10^−6 M. The cells were incubated for 48 h and the viable cell numbers were determined by MTS assay according to the manufacturer's instructions. Cell viability can be reflected by the integrity of the mitochondria. When the MTS reagent (a tetrazolium salt) is applied to living cells, it is converted to a color compound (formazan) […] at 490 nm. Accordingly, the MTS assay may be used to assay cell viability and to count viable cells.

Rat-2 cells = assay: Intracellular cAMP in Rat-2 cells; assay type: cell-based; conditions: in the absence of CGRP binding
Description: (§3) In order to skip this problem, cell lines expressing endogenous adrenomedullin binding. Three cell lines to date are available. L6 cells are a rat myoblast cell line known to express CGRP1 receptors, Swiss 3T3 cells are a mouse fibroblast cell line, and Rat-2 cells are rat fibroblasts. […] L6 cells express CRLR and RAMPs 1 and 2. In Swiss 3T3 cells the effects of adrenomedullin were mediated via specific adrenomedullin receptors. […] These cells are useful in establishing the screening system to inhibit functionally the intracellular signal transduction after a receptor engagement by adrenomedullin.

[8] = test system: Mitogen-activated protein kinases (MAPKS); assay: MAPK activity in Rat-2 cells; assay type: cell-based
Description: as §3

U87 glioblastoma cells = conditions: exogenously added; cited from earlier work

Row | Substance | Average ± standard deviation of blood vessel diameters [3] [μm] | Number of blood vessels 2 μm to less than 8 μm [3] | Number of blood vessels 8 μm or more [3] | Number of blood vessels less than 2 μm [3] | newly generated blood vessels by anti-CD31 staining [3] | cells reacting with the anti-PCNA antibody [4] | PCNA-labelling index [4] | apoptosis of endothelial cells (viable cells, O.D.) (HUVEC cells [6]) | further results
1 | AMA: 31 amino acid truncated human adrenomedullin lacking the first 21 N-terminal amino acids (SEQ ID NO: 2), purchased from Wako | 2.276 ± 1.120 | 44 | 1 | 55 | newly generated blood vessels were thin | few cells reacted with the anti-PCNA antibody | 6.3±5.2 | – | tumor size (volume) (PCI-43 cells [1]; listed as adrenomedullin antagonist): became almost megascopically invisible; also recorded: reduction in tumor volume; tumor weight relative to adrenomedullin-administered group (PCI-43 cells [2]; 21st day): about half; size of the extirpated tumor compared to adrenomedullin-administered group (PCI-43 cells [2]; 21st day, photograph FIG. 3, listed as adrenomedullin antagonist): became smaller; also recorded: noticeably smaller; blood vessel diameters relative to adrenomedullin-administered mice ([3]; mouse, in vivo): one half; proliferating cells compared to adrenomedullin-administered mice ([4]; mouse, in vivo): decreased by about one quarter; apoptosis of endothelial cells (viable cells, O.D.) (HUVEC cells [5]): induced apoptosis of the endothelial cells in a dose dependent manner; growth inhibitory effect on cancer cells in vitro (cancer cells): did not exhibit any growth inhibitory effect
2 | VEGF | – | – | – | – | – | – | – | underwent apoptosis | –
3 | adrenomedullin (YRQSMNNFQGLRSFGCRFGTCTVQKLAHQIYQFTDKDKDNVAPRSKISPQGY; listed as Homo sapiens) [AM, reference compound] | 6.454 ± 5.313 | 54 | 31 | 15 | thick blood vessels were newly generated | many cells reacting with the anti-PCNA antibody were present | 25.8±3.9 | protected the endothelial cells from apoptosis | tumor size (volume) (PCI-43 cells [1]): the tumor size hardly changed; tumor weight (PCI-43 cells [2]; 50 μg into the tumor on 7th, 10th, 13th, 16th days, tumors extirpated on 21st day): about 0.05 g; growth of endothelial cells (viable cells, O.D.) (HUVEC cells [7]): no significant effect; intracellular cAMP (Rat-2 cells): dose-dependent stimulation of intracellular cAMP; PDGF-stimulated and basal MAPK activity [8]: potently and dose-dependently inhibited; growth of glioblastoma cells in vitro (U87 glioblastoma cells): can stimulate the growth
